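Briefly, cells in 96-well plates were exposed to five compound concentrations for 48 h, and endpoints were estimated by linear interpolation. GI50 = concentration required for 50% inhibition of growth.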 Active and inactive are the calls of the source. No stated cut-off is given here; in the data, active = GI50 up to about 1.1 µM and inactive = higher.
Legend:
Test in all cases: NCI anticancer screen, dose series, 48 h
SK-MEL-5 = system: SK-MEL-5
NCI/ADR-RES = system: NCI/ADR-RES
Malme-3M = system: Malme-3M
HCC 2998 = system: HCC 2998
OVCAR-3 = system: OVCAR-3
SW-620 = system: SW-620
NCI-H226 = system: NCI-H226
HOP-62 = system: HOP-62
CCRF-CEM = system: CCRF-CEM
MCF7 = system: MCF7
TK-10 = system: TK-10
NCI-H23 = system: NCI-H23
HCT-116 = system: HCT-116
SK-MEL-2 = system: SK-MEL-2
Hs-578T = system: Hs-578T
SR = system: SR
RXF 393 = system: RXF 393
MOLT-4 = system: MOLT-4
M14 = system: M14
A549 = system: A549
UACC-257 = system: UACC-257
SNB-19 = system: SNB-19
SK-OV-3 = system: SK-OV-3
CAKI-1 = system: CAKI-1
U-251 = system: U-251
K562 = system: K562
OVCAR-4 = system: OVCAR-4
SNB-75 = system: SNB-75
SN12C = system: SN12C
HT-29 = system: HT-29
OVCAR-8 = system: OVCAR-8
MDA-MB-435 = system: MDA-MB-435
HCT-15 = system: HCT-15
MDA-MB-231 = system: MDA-MB-231
IGROV-1 = system: IGROV-1
COLO 205 = system: COLO 205
SK-MEL-28 = system: SK-MEL-28
T47D = system: T47D
SF-268 = system: SF-268
786-0 = system: 786-0
UACC-62 = system: UACC-62
SF-295 = system: SF-295
HL-60 = system: HL-60
UO-31 = system: UO-31
DU-145 = system: DU-145
LOX IMVI = system: LOX IMVI
PC-3 = system: PC-3
RPMI-8226 = system: RPMI-8226
KM12 = system: KM12
OVCAR-5 = system: OVCAR-5
ACHN = system: ACHN
EKVX = system: EKVX
BT-549 = system: BT-549
HOP-92 = system: HOP-92
NCI-H460 = system: NCI-H460
NCI-H522 = system: NCI-H522
A498 = system: A498

For `C[N+]1([O-])CCC(O)(C2CC2)CC1` (stereo not given), the GI50 (SK-MEL-5) was > 100 µM (inactive), the GI50 (NCI/ADR-RES) was > 100 µM (inactive) and the GI50 (Malme-3M) was > 100 µM (inactive). For the same molecule, the GI50 (HCC 2998) was > 100 µM (inactive), the GI50 (OVCAR-3) was > 100 µM (inactive) and the GI50 (SW-620) was > 100 µM (inactive). For the same molecule, the GI50 (NCI-H226) was > 100 µM (inactive), the GI50 (HOP-62) was > 100 µM (inactive) and the GI50 (CCRF-CEM) was > 100 µM (inactive). The GI50 (MCF7) was > 100 µM (inactive), the GI50 (TK-10) was > 100 µM (inactive) and the GI50 (NCI-H23) was > 100 µM (inactive). The GI50 (HCT-116) was > 100 µM (inactive), the GI50 (SK-MEL-2) was > 100 µM (inactive) and the GI50 (Hs-578T) was > 100 µM (inactive). The GI50 (SR) was > 100 µM (inactive), the GI50 (RXF 393) was > 100 µM (inactive) and the GI50 (MOLT-4) was > 100 µM (inactive). For the same molecule, the GI50 (M14) was > 100 µM (inactive), the GI50 (A549) was > 100 µM (inactive) and the GI50 (UACC-257) was > 100 µM (inactive). The GI50 (SNB-19) was > 100 µM (inactive), the GI50 (SK-OV-3) was > 100 µM (inactive) and the GI50 (CAKI-1) was > 100 µM (inactive). For the same molecule, the GI50 (U-251) was > 100 µM (inactive), the GI50 (K562) was > 100 µM (inactive) and the GI50 (OVCAR-4) was > 100 µM (inactive). For the same molecule, the GI50 (SNB-75) was > 100 µM (inactive), the GI50 (SN12C) was > 100 µM (inactive) and the GI50 (HT-29) was > 100 µM (inactive). The GI50 (OVCAR-8) was > 100 µM (inactive), the GI50 (MDA-MB-435) was > 100 µM (inactive) and the GI50 (HCT-15) was > 100 µM. For the same molecule, the GI50 (MDA-MB-231) was > 100 µM (inactive), the GI50 (IGROV-1) was > 100 µM (inactive) and the GI50 (COLO 205) was > 100 µM (inactive). The GI50 (SK-MEL-28) was 0.0399 µM (active), the GI50 (T47D) was > 100 µM (inactive) and the GI50 (SF-268) was > 100 µM (inactive). The GI50 (786-0) was > 100 µM (inactive), the GI50 (UACC-62) was > 100 µM (inactive) and the GI50 (SF-295) was > 100 µM (inactive). For the same molecule, the GI50 (HL-60) was > 100 µM (inactive), the GI50 (UO-31) was > 100 µM (inactive) and the GI50 (DU-145) was > 100 µM (inactive). The GI50 (LOX IMVI) was > 100 µM (inactive), the GI50 (PC-3) was > 100 µM (inactive) and the GI50 (RPMI-8226) was > 100 µM (inactive). For the same molecule, the GI50 (KM12) was > 100 µM (inactive), the GI50 (OVCAR-5) was > 100 µM (inactive) and the GI50 (ACHN) was > 100 µM (inactive). For the same molecule, the GI50 (EKVX) was > 100 µM (inactive) and the GI50 (BT-549) was > 100 µM (inactive).
For `O=[N+]([O-])c1ccc(Nc2nc3ccccc3s2)cc1`, the GI50 (SK-MEL-5) was 21.6 µM (inactive), the GI50 (NCI/ADR-RES) was 34.9 µM (inactive) and the GI50 (Malme-3M) was 15.9 µM (inactive). The GI50 (HCC 2998) was 25.2 µM (inactive), the GI50 (OVCAR-3) was 18.7 µM (inactive) and the GI50 (SW-620) was 35 µM (inactive). For the same molecule, the GI50 (NCI-H226) was 63 µM (inactive), the GI50 (HOP-62) was 29.2 µM (inactive) and the GI50 (HOP-92) was 26.2 µM (inactive). For the same molecule, the GI50 (TK-10) was 33.7 µM (inactive), the GI50 (NCI-H23) was 16 µM (inactive) and the GI50 (SK-MEL-2) was 25.5 µM (inactive). The GI50 (Hs-578T) was 29.9 µM (inactive), the GI50 (SR) was 10.7 µM (inactive) and the GI50 (RXF 393) was 14.7 µM (inactive). For the same molecule, the GI50 (MOLT-4) was 8.36 µM (inactive), the GI50 (M14) was 26.7 µM (inactive) and the GI50 (A549) was 47.6 µM (inactive). The GI50 (NCI-H460) was 29.4 µM (inactive), the GI50 (UACC-257) was 25.8 µM (inactive) and the GI50 (SNB-19) was 38.5 µM (inactive). For the same molecule, the GI50 (CAKI-1) was > 100 µM (inactive), the GI50 (U-251) was 17.3 µM (inactive) and the GI50 (K562) was 12.2 µM (inactive). The GI50 (OVCAR-4) was 43.2 µM (inactive), the GI50 (NCI-H522) was 14.4 µM (inactive) and the GI50 (HT-29) was 34.6 µM (inactive). For the same molecule, the GI50 (OVCAR-8) was 40.7 µM (inactive), the GI50 (MDA-MB-435) was 37.9 µM (inactive) and the GI50 (HCT-15) was 28.8 µM. The GI50 (MDA-MB-231) was 18 µM (inactive), the GI50 (IGROV-1) was 3.94 µM (inactive) and the GI50 (SK-MEL-28) was 46.2 µM (inactive). The GI50 (T47D) was 3.03 µM (inactive), the GI50 (SF-268) was 26.3 µM (inactive) and the GI50 (UACC-62) was 20.2 µM (inactive). For the same molecule, the GI50 (SF-295) was 37.6 µM (inactive), the GI50 (UO-31) was 18.5 µM (inactive) and the GI50 (DU-145) was 69.8 µM (inactive). For the same molecule, the GI50 (LOX IMVI) was 14.9 µM (inactive), the GI50 (PC-3) was 16.3 µM (inactive) and the GI50 (A498) was 30.4 µM (inactive). The GI50 (KM12) was 51.6 µM (inactive), the GI50 (OVCAR-5) was 23 µM (inactive) and the GI50 (ACHN) was 29.5 µM (inactive). For the same molecule, the GI50 (EKVX) was 18.7 µM (inactive) and the GI50 (BT-549) was 27.2 µM (inactive).

From ChEMBL document CHEMBL1201862, “PubChem BioAssay data set” (2004)
